# Assay results as given in patent EP4603105A1, “PHARMACEUTICAL COMPOSITION CONTAINING CYCLIC COMPOUND HAVING SELECTIVE KRAS INHIBITORY EFFECT AGAINST HRAS AND NRAS” (CHUGAI SEIYAKU KABUSHIKI KAISHA, priority 2022, dated 2024).
# Where two headings read alike, the source gives them in different places.
# Columns and labels:
# [1] = biological target: GDP-bound KRAS wild-type protein (Homo sapiens, UniProt P01116); assay: Binding to KRAS by surface plasmon resonance (SPR), dissociation constant KD
# Procedure, shortened: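 Read-out is KD from 1:1 fitting of single-cycle kinetics sensorgrams, blank-cycle and reference-surface corrected. Proteins were GDP-loaded, biotinylated Avi-fusions freshly captured each cycle at roughly 100–300 RU. Runs were at 30°C in HBS pH 7.4 with MgCl2, GDP and 4% DMSO.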
# [2] = biological target: GDP-bound NRAS wild-type protein (Homo sapiens, UniProt P01111); assay: Binding to NRAS by surface plasmon resonance (SPR), KD and KD ratio to KRAS
# Procedure, shortened: (§1)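 Single-cycle kinetics on GDP-loaded biotin-Avi RAS captured to ~100–300 RU; 75 s ascending injections, 100 µL/min, 30°C. HBS pH 7.4 + 10 mM MgCl2/10 µM GDP/4% DMSO. 1:1 fit, KD.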
# [3] = test system: human lung cancer strain NCI-H441; assay: NCI-H441 cell proliferation inhibitory activity (CellTiter-Glo, 4 days); type: cell-based; conditions: read-out: NCl-H441 IC50
# Procedure, shortened: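 Proliferation was scored by […] measured after the reagent was added to cultures kept at 37°C in 5% carbon dioxide.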
# HRAS wild-type protein = HRAS wild-type protein (Homo sapiens, UniProt P01112); assay: Binding to HRAS by surface plasmon resonance (SPR), KD and KD ratio to KRAS
# Procedure, shortened: as §1
# [4] = ratio of KD for GDP-bound NRAS wild-type protein to KD for KRAS
# [5] = ratio of KD for HRAS wild-type protein to KD for KRAS
# [6] = Single Cycle Kinetics, 1:1 binding model
# [7] = ratio of KD with respect to GDP-bound NRAS wild-type protein to KD with respect to KRAS
# [8] = 50% proliferation inhibitory concentration, four days
# [9] = ratio of KD with respect to HRAS wild-type protein to KD with respect to KRAS
# Sequence of GDP-bound NRAS wild-type protein (P01111 whole entry): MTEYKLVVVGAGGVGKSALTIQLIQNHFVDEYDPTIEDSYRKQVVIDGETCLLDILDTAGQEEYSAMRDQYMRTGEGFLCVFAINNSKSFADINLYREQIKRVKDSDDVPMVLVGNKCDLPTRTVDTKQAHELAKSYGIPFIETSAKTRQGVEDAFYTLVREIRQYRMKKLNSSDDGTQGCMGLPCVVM
# Sequence of GDP-bound KRAS wild-type protein (P01116 1-188 isoform P01116-2): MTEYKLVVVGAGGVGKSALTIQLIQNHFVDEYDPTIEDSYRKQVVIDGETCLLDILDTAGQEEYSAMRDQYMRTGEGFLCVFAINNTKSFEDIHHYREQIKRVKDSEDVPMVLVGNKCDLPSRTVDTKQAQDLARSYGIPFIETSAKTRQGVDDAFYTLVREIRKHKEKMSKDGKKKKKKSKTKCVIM
# Sequence of HRAS wild-type protein (P01112 whole entry): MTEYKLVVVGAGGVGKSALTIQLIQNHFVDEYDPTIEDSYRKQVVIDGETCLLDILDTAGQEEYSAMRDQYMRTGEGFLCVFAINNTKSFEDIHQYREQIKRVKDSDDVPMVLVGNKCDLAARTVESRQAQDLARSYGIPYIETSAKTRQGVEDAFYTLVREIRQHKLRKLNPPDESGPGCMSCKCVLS
SMILES,Kd ([1]; Single Cycle Kinetics) [nM],"IC50 ([3]; NCI-H441 cells, 4 days) [nM]","Kd [1, 6] [nM]","IC50 [3, 8] [nM]",Kd ([1]; 1:1 binding model) [nM],"NRAS /KRAS [2, 4]",HRAS /KRAS (HRAS wild-type protein; [5]),"NRAS /KRAS [2, 7]",HRAS /KRAS (HRAS wild-type protein; [9])
CCO[C@@H]1C[C@H]2C(=O)NC3(CCC3)C(=O)N(C)[C@@H](C3CCCC3)C(=O)N(C)[C@H](C(=O)N(C)C)CC(=O)N(C)[C@@H](Cc3ccc(C#N)cc3)C(=O)N[C@@H]([C@@H](C)CC)C(=O)N(C)CC(=O)N(C)[C@H]3CCCCCN(C3=O)[C@@H](Cc3ccc(F)cc3)C(=O)N(C)CC(=O)N[C@@H](CCc3cc(F)c(C(F)(F)F)c(F)c3)C(=O)N2C1 [PP1157],,,0.061,30.3,,,,B (a compound having 3 or more and less than 10 is denoted as B),B (a compound having 3 or more and less than 10 is denoted as B)
CCCN(C)C(=O)[C@@H]1CC(=O)N(C)[C@@H](CC(C)C)C(=O)N[C@@H]([C@@H](C)CC)C(=O)N2CCC[C@H]2C(=O)N(C)[C@H]2C/C=C\CCN(C2=O)[C@@H](Cc2ccc(C(F)(F)F)cc2)C(=O)N(C)CC(=O)N[C@@H](CCc2cc(F)c(C(F)(F)F)c(F)c2)C(=O)N2C[C@H](OCC)C[C@H]2C(=O)N[C@]2(C[C@H](OC)C2)C(=O)N(C)[C@@H](C2CCCC2)C(=O)N1C [PP3355],1.1,45.5,,,,A (a compound having 10 or more and less than 20 is denoted as A),A (a compound having 10 or more and less than 20 is denoted as A),,
CCO[C@@H]1C[C@H]2C(=O)NC(C)(C)C(=O)N(C)[C@@H](C3CCCC3)C(=O)N(C)[C@H](C(=O)N(C)C)CC(=O)N(C)[C@@H](CC(C)C)C(=O)N[C@@H]([C@@H](C)CC)C(=O)N(C)CC(=O)N(C)[C@H]3C/C(F)=C\CCN(C3=O)[C@@H](Cc3ccc(C)cc3)C(=O)N(C)CC(=O)N[C@@H](CCc3cc(F)c(C(F)(F)F)c(F)c3)C(=O)N2C1 [PP3523],0.59,23.9,,,,B (a compound having 3 or more and less than 10 is denoted as B),B (a compound having 3 or more and less than 10 is denoted as B),,
CC[C@H](C)[C@@H]1NC(=O)[C@H](CC)N(C)C(=O)C[C@@H](C(=O)N(C)C)N(C)C(=O)[C@H](C2CCCC2)N(C)C(=O)C2(CCC2)NC(=O)[C@@H]2CCCN2C(=O)[C@H](CCc2cc(F)c(C(F)(F)F)c(F)c2)NC(=O)CN(C)C(=O)[C@H](Cc2ccc(C(F)(F)F)cc2)N2CC/C=C\C[C@@H](C2=O)N(C)C(=O)CN(C)C1=O [PP1135],,,0.094,43.9,,,,A (a compound having 10 or more and less than 20 is denoted as A),A (a compound having 10 or more and less than 20 is denoted as A)

# Continued, in another order:
Kd ([1]; Single Cycle Kinetics) [nM],"IC50 ([3]; NCI-H441 cells, 4 days) [nM]","Kd [1, 6] [nM]","IC50 [3, 8] [nM]",Kd ([1]; 1:1 binding model) [nM],SMILES,"NRAS /KRAS [2, 4]",HRAS /KRAS (HRAS wild-type protein; [5]),"NRAS /KRAS [2, 7]",HRAS /KRAS (HRAS wild-type protein; [9])
0.16,19.1,,,,CCC[C@@H]1NC(=O)C[C@@H](C(=O)N(C)C)N(C)C(=O)[C@H](C2CCCC2)N(C)C(=O)C2(CC(C)(C)C2)NC(=O)[C@@H]2C[C@@H](OCC)CN2C(=O)[C@H](CCc2ccc(C(F)(F)F)c(OC)c2)NC(=O)CN(C)C(=O)[C@H](Cc2ccc(C(F)(F)F)cc2)N2CC/C=C\C[C@@H](C2=O)N(C)C(=O)CN(C)C(=O)[C@H]([C@@H](C)CC)NC1=O [PP3447],A (a compound having 10 or more and less than 20 is denoted as A),A (a compound having 10 or more and less than 20 is denoted as A),,
,21,,,0.15,CCO[C@H](C)[C@@H]1NC(=O)[C@H](CC(C)C)N(C)C(=O)C[C@@H](C(=O)N(C)C)N(C)C(=O)[C@H](C2CCCC2)N(C)C(=O)C2(CC(C)(C)C2)NC(=O)[C@@H]2C[C@H](C)CN2C(=O)[C@H](CCc2ccc(C(F)(F)F)c(OC)c2)NC(=O)CN(C)C(=O)[C@H](Cc2ccc(C)cc2)N2CC/C=C\C[C@@H](C2=O)N(C)C(=O)CN(C)C1=O [PP2412],A (a compound having 10 or more and less than 20 is denoted as A),B (a compound having 3 or more and less than 10 is denoted as B),,
